The nature of the data set: Metabolic stability in human liver microsomes. The class given is in vitro ADME. The settings on record: Human Liver Microsome (HLM). As to the method: Working solution: 5 µL of compound and control stock solution (10 mM in dimethyl sulfoxide (DMSO)) were diluted with 495 µL of acetonitrile (ACN) (intermediate solution concentration: 100 µM, 99% ACN)
NADPH Cofactor Preparation: NADPH powder: β-Nicotinamide adenine dinucleotide phosphate reduced form, tetrasodium salt; NADPH 4 Na. The appropriate amount of NADPH powder was weighed and diluted into a 10 mM MgCl2 solution (working solution concentration: 10 unit/mL; final concentration in reaction system: 1 unit/mL)
Liver Microsomes Preparation: The appropriate concentrations of microsome working solutions were prepared in 100 mM potassium phosphate buffer. Cold (4° C.) acetonitrile (ACN) containing 200 ng/mL tolbutamide and 200 ng/mL labetalol as internal standards (IS) was used as the stop solution
Assay Procedure: Pre-warm empty ‘Incubation’ plates T60 and NCF60 for 10 minutes. Dilute liver microsomes to 0.56 mg/mL in 100 mM phosphate buffer. Transfer 445 µL microsome working solutions (0.56 mg/mL) into pre-warmed ‘Incubation’ plates T60 and NCF60, Then pre-incubate ‘Incubation’ plates T60 and NCF60 for 10 min at 37° C. with constant shaking. […]
The biological stability of the compounds of the invention can be measured by determining its ½ life in the presence microsomes. […]

A word on the half-life: it is how long it takes for the measured level to halve. Read a low half-life as rapid decline. In the case of `CS(=O)(=O)Nc1cc(-c2ccc3ncnc(Nc4cccc(Cl)c4F)c3c2)cnc1Cl` [Compound 6, N-[2-chloro-5-[4-(3-chloro-2-fluoro-anilino)quinazolin-6-yl]-3-pyridyl] methanesulfonamide], the half-life at 1 µM fell in the range of 10 to 100 min.

The record behind these values is US20230133958A1, “COMPOUNDS USEFUL IN MODULATING EGFR AND PI3K” (Mekanistic Therapeutics LLC, priority 2021, published 2023).
